In patent publication US20260021131A1, “USE OF MI[…] IN COMBINATION WITH CA[…] TREATING NASOPHARYNGEAL CARCINOMA” (CSPC ZHONGQI PHARMACEUTICAL TECHNOLOGY (SHIJIAZHUANG) CO., …, priority 2022, published 2026):

How the values were obtained:
[1] = test system: subjects with recurrent and/or metastatic nasopharyngeal carcinoma who have failed platinum-based therapy; assay: Phase III clinical study of mitoxantrone hydrochloride liposome injection combined with capecitabine versus capecitabine monotherapy: efficacy evaluation (best overall response, RECIST 1.1); format: in vivo, human; design: key to Best overall response: complete response (CR); partial response (PR); stable disease (SD); disease progression (PD)
Description: (§1) Example 1. A Randomized, Open-Label, Positive-Controlled, Multi-center Phase III Clinical Study of Mitoxantrone Hydrochloride Liposome Injection Combined with Capecitabine Versus Capecitabine Monotherapy in Subjects with Recurrent and/or Metastatic Nasopharyngeal Carcinoma Who Have Failed Platinum-Based Therapy.
This study is a randomized, open-label, positive-controlled, multicenter phase III clinical study whose objective is to evaluate the efficacy and safety of mitoxantrone hydrochloride liposome injection combined with capecitabine versus capecitabine monotherapy in subjects with recurrent and/or metastatic nasopharyngeal carcinoma.
(§2) Subjects with recurrent and/or metastatic nasopharyngeal carcinoma who have failed first-line or second-line platinum-based therapy will be enrolled. After screening, eligible subjects are stratified-randomized (stratification factors: (1) ECOG score: 0 vs. 1; (2) whether a liver metastasis is present: any metastasis is present vs. all metastases are not present; (3) gender: male vs. female) in a 1:1 ratio into an experimental group and a control group.
(§3) The experimental group receives treatment with mitoxantrone hydrochloride liposome injection (20 mg/m^2) combined with capecitabine (1000 mg/m^2, twice daily), with every 3 weeks as a treatment cycle. The mitoxantrone hydrochloride liposome is administered on day 1 of each cycle, and capecitabine is administered on days 1 to 14. After 8 cycles of treatment with the mitoxantrone hydrochloride liposome, the investigator will assess the patient's risk-benefit ratio to determine whether to continue treatment until disease progression or intolerance, and capecitabine monotherapy as maintenance treatment. The control group receives capecitabine monotherapy, with every 3 weeks as a treatment cycle. Capecitabine monotherapy is administered on days 1 to 14 of each cycle. Sparse blood collection is conducted for all subjects in the experimental group.
During the study, the Independent Data Monitoring Committee (IDMC) will conduct safety assessments after two cycles of treatment for the first 40 subjects enrolled (about 20 per group) and throughout the study. Enrollment will continue during the safety assessment period. All subjects will be treated until disease progression according to the RECIST1.1 criteria, intolerable toxicity, withdrawal of informed consent, initiation of new anti-tumor therapy, loss to follow-up, death, or end of study, whichever occurs first. If the subject has no more treatment options after the investigator first determines that the subject has experienced disease progression, and the investigator determines that the subject can continue to benefit from the trial treatment, the subject may continue to receive the trial treatment in this trial until disease progression as assessed by the IRC or the investigator determines that the subject no longer benefits. […]

[2] = test system: subjects with recurrent and/or metastatic nasopharyngeal carcinoma who have failed platinum-based therapy; format: in vivo, human
Description: as §1, §2, §3
During the study, the Independent Data Monitoring Committee (IDMC) will conduct safety assessments after two cycles of treatment for the first 40 subjects enrolled (about 20 per group) and throughout the study. Enrollment will continue during the safety assessment period. All subjects will be treated until disease progression according to the RECIST1.1 criteria, intolerable toxicity, withdrawal of informed consent, initiation of new anti-tumor therapy, loss to follow-up, death, or end of study, whichever occurs first. If the subject has no more treatment options after the investigator first determines that the subject has experienced disease progression, and the investigator determines that the subject can continue to benefit from the trial treatment, the subject may continue to receive the trial treatment in this trial until disease progression as assessed by the IRC or the investigator determines that the subject no longer benefits.
• Objective response rate (ORR), disease control rate (DCR), and duration of response (DOR) as assessed by the investigator and the IRC • Progression-free survival (PFS) as assessed by the investigator • Frequency and severity of AEs (NCI CTCAE 5.0); changes in vital signs, physical examinations, electrocardiograms, and laboratory findings • Total mitoxantrone and free mitoxantrone plasma concentrations. • Note: The abbreviations described above have the following meanings: • PFS: progression-free survival, defined as the time between the initial treatment of study drug and the date of disease progression (PD) or death, whichever occurs first. • OS: overall survival, defined as the time from the initial treatment of the study drug to death from any cause. • ORR: objective response rate, defined as the proportion of subjects achieving complete response (CR) and partial response (PR). • DCR: disease control rate, defined as the proportion of subjects achieving complete response (CR), partial response (PR), and stable disease (SD). • DOR: duration of response, defined as the time from the first assessment of CR or PR to the first assessment of PD or death from any cause.

[3] = subjects evaluated for BOR (9 experimental group, 5 control group), by Jul. 31, 2023

CCCCCOC(=O)Nc1nc(=O)n([C@@H]2O[C@H](C)[C@@H](O)[C@H]2O)cc1F [control group, capecitabine]
Best overall response ([1]; subject S01005, ECOG 0, 1 line received, metastasis liver and lung): SD
Best overall response ([1]; subject S13001, ECOG 1, 1 line received, metastasis liver, spleen, and bone): PD
Best overall response ([1]; subject S14001, ECOG 1, 2 lines received, metastasis liver and bone): PD
Best overall response ([1]; subject S24001, ECOG 1, 2 lines received, metastasis bone): PR
Best overall response ([1]; subject S32001, ECOG 1, 1 line received, metastasis liver): PD
Best overall response (BOR): number of evaluated subjects with PD [1, 3]: three
Best overall response (BOR): number of evaluated subjects with PR [1, 3]: one
Best overall response (BOR): number of evaluated subjects with SD [1, 3]: one
Best overall response (BOR): percentage of evaluated subjects with PD [1, 3]: 60%
Best overall response (BOR): percentage of evaluated subjects with PR [1, 3]: 20%
Best overall response (BOR): percentage of evaluated subjects with SD [1, 3]: 20%
SAE: Acute epiglottitis ([2]; both, human, in vivo): 0 n (%)
SAE: Anemia ([2]; both, human, in vivo): 0 n (%)
SAE: Bacterial pneumonia ([2]; both, human, in vivo): 1 (3.3%) n (%)
SAE: Cancer pain ([2]; both, human, in vivo): 0 n (%)
SAE: Dysphagia ([2]; both, human, in vivo): 1 (3.3%) n (%)
SAE: General fatigue ([2]; both, human, in vivo): 0 n (%)
SAE: Hypokalemia ([2]; both, human, in vivo): 0 n (%)
SAE: Hyponatremia ([2]; both, human, in vivo): 0 n (%)
SAE: Neutrophil count decreased ([2]; both, human, in vivo): 0 n (%)
SAE: Oralmucositis ([2]; both, human, in vivo): 1 (3.3%) n (%)
SAE: Platelet count decreased ([2]; both, human, in vivo): 0 n (%)
SAE: Post-cardiac arrest resuscitation syndrome ([2]; both, human, in vivo): 1 (3.3%) n (%)
SAE: Posterior-circulation ischemia ([2]; both, human, in vivo): 1 (3.3%) n (%)
SAE: Pulmonary infection ([2]; both, human, in vivo): 0 n (%)
SAE: Severe pneumonia ([2]; both, human, in vivo): 1 (3.3%) n (%)
SAE: Sinusitis ([2]; both, human, in vivo): 0 n (%)
SAE: Upper airway obstruction ([2]; both, human, in vivo): 0 n (%)
SAE: White blood cell count decreased ([2]; both, human, in vivo): 0 n (%)
Subjects who experienced serious adverse events (SAEs), total ([2]; both, human, in vivo): 3 subjects
SAE: Death from unknown cause ([2]; experimental group N = 32, control group N = 30): 1 (3.3%) n (%)
Subjects who died (end of the study) ([2]; up to Jul. 31, 2023, 32 subjects experimental group, 30 subjects control group): two
